Literature values, collected in patent US20090062282A1, “Substituted Amino-Pyrimidones and Uses Thereof” (AstraZeneca AB, priority 2004, published 2009).
Square brackets hold non-standard residues; d marks the D form. Peptide text beside a SMILES is read from it. * marks the point of attachment. Sta = CC(C)C[C@H](N)[C@@H](O)CC(=O)O; Isovaleryl = CC(C)CC(=O)*

Biological target: BACE (Homo sapiens, UniProt P56817)
Sequence (P56817 46-501): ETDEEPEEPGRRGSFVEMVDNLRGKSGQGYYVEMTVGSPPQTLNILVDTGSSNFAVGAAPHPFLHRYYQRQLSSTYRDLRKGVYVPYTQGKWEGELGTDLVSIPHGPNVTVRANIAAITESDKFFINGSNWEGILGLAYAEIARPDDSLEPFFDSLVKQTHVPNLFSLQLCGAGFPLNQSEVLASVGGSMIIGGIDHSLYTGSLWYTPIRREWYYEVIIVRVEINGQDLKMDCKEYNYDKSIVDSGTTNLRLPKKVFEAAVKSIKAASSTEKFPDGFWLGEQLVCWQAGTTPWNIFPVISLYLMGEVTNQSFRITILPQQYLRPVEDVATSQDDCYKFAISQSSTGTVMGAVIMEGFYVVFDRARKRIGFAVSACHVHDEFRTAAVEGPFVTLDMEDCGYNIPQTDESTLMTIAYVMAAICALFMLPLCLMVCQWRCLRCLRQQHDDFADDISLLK

For `CC(C)CC(=O)N[C@H](C(=O)N[C@H](C(=O)N[C@@H](CC(C)C)[C@@H](O)CC(=O)N[C@@H](C)C(=O)N[C@@H](CC(C)C)[C@@H](O)CC(=O)O)C(C)C)C(C)C` [pepstatin] (Isovaleryl-VV[Sta]A[Sta]-OH), the “inhibition of BACE” value is given as “inhibited weakly”.
